Experimental data published in PMC10301922, “Anti-Oxidant, Anti-Mutagenic Activity and Safety Evaluation of Antrocin” (Toxics, 2023).
Read-outs that look alike come from different tables or passages of the source.

Assays:
Sprague Dawley rats [1] = details: rat, in vivo, po, 7.5 mg/kg
Sprague Dawley rats [2] = details: rat, in vivo, 7.5 mg/kg
Sprague Dawley rats [3] = details: rat, in vivo, po, 7.5 mg/kg; remark: listed apart in the source
Sprague Dawley rats [4] = details: rat, in vivo, po, 7.5 mg/kg; remark: listed apart in the source
Wistar rats = test system: Wistar rats; design: method as in earlier work; details: 28-day oral; cited from earlier work
[5] = test system: Salmonella typhimurium TA1535; assay: Antimutagenicity test, TA1535
[6] = test system: Salmonella typhimurium TA100
CHO-K1 cells = details: with S9 (3 h), 25 μg/mL, positive control
Experimental: A chromosomal aberration test was performed to evaluate the potential for antrocin to induce structural chromosomal abnormalities in Chinese hamster ovary cells (CHO-K1 cells). The test followed the protocol in Genetic Toxicology Testing: A Laboratory Manual. CHO-K1 cells were obtained from the Bioresource Collection and Research Center (BCRC), and were cultured in Ham F-12 medium with 10% fetal bovine serum and 0.1% Penicillin–Streptomycin at 5% CO2 in a 37 °C incubator. […] Three experimental conditions were conducted: 3 h with and without S9 (short term), and 19 h without S9 (long term). […] CHO-K1 cells were cultured in 25T flasks, incubated with samples for 3 or 19 h with and without S9, and harvested at the time of 1.5 cell cycle lengths (about 21 h). Two hours before harvesting, 100 μL colcemid (10 μg/mL) was added to disrupt cell mitosis. Collected cells were then treated with 0.6% KCl solution and fixed with acetic acid–methanol (1:3) solution. After fixation, cells were stained with Diff-Quik on a glass slide. A total of 300 cells in metaphase per group were observed, and the number of chromosomal aberrations was recorded. The chromosomal aberration rate (%) was calculated using the following formula: (number of cells with aberrations/total number of cells examined) × 100. A Student’s t-test was used for statistical analysis, and a significant increase (p < 0.05) compared to the negative control indicated a positive response.

ICR male mice = assay: In vivo mammalian erythrocyte micronucleus test; details: for Mn-RETs/1000RETs (‰) / RETs/1000RBCs (‰): 60 mg/kg bw ip; for frequencies of micronuclei: positive control group (60 mg/kg ip)
[7] = test system: Salmonella typhimurium TA1537; assay: Ames test (plate incorporation), TA1537; details: TA1537, with S9, positive reagent 5 μg/plate
[8] = test system: Salmonella typhimurium TA102; assay: Ames test (plate incorporation), TA102; details: TA102, with S9, positive reagent 5 μg/plate
[9] = test system: Salmonella typhimurium TA98
[10] = test system: Salmonella typhimurium TA1535; assay: Ames test (plate incorporation), TA1535; details: TA1535, with S9, positive reagent 5 μg/plate
[11] = test system: Salmonella typhimurium TA98; assay: Ames test (plate incorporation), TA98; details: TA98, with S9, positive reagent 5 μg/plate
[12] = female, Sprague Dawley, po, 28 days
[13] = male, Sprague Dawley, po, 28 days

CNC(=O)c1cc(Oc2ccc(NC(=O)Nc3ccc(Cl)c(C(F)(F)F)c3)cc2)ccn1 [Sorafenib, sorafenib]
<1 U/L: GGT (Sprague Dawley rats [3])
4/4: Ovary: Increase, follicle, multifocal, moderate to moderate/severe; incidence (Sprague Dawley rats [2]; [12])
3/5: Bone marrow, femur: Hypocellularity, diffuse, slight to moderate/severe; incidence (Sprague Dawley rats [2]; [13]) | Bone marrow, sternum: Hypocellularity, diffuse, moderate; incidence (Sprague Dawley rats [2]; [13]) | Kidney: Cast, tubule, focal, minimal; incidence (Sprague Dawley rats [2]; [13])
<0.1 mg/dL: TB (Sprague Dawley rats [3])
-: Salivary gland, Sublingual lobe: histopathological lesions (Sprague Dawley rats [2]) | Aorta: histopathological lesions (Sprague Dawley rats [2]; po) | Cervix: histopathological lesions (Sprague Dawley rats [2]; po) | Coagulative gland: histopathological lesions (Sprague Dawley rats [2]; po) | Esophagus: histopathological lesions (Sprague Dawley rats [2]; po) | Eyes: histopathological lesions (Sprague Dawley rats [2]; po) | Harderian gland: Infiltration, mononuclear cell, focal, minimal; incidence (Sprague Dawley rats [2]; po) | Harderian gland: histopathological lesions (Sprague Dawley rats [2]; po) | Heart: histopathological lesions (Sprague Dawley rats [2]; po) | Intestine, large, Caecum: histopathological lesions (Sprague Dawley rats [2]; po) | Intestine, large, Colon: histopathological lesions (Sprague Dawley rats [2]; po) | Intestine, large, Rectum: histopathological lesions (Sprague Dawley rats [2]; po) | Intestine, small, Duodenum: histopathological lesions (Sprague Dawley rats [2]; po) | Intestine, small, Ileum: histopathological lesions (Sprague Dawley rats [2]; po) | Intestine, small, Jejunum: histopathological lesions (Sprague Dawley rats [2]; po) | Kidney: Cyst, tubule, focal, slight; incidence (Sprague Dawley rats [2]; po) | Liver: Fatty change, multifocal, slight; incidence (Sprague Dawley rats [2]; po) | Liver: histopathological lesions (Sprague Dawley rats [2]; po) | Lung: histopathological lesions (Sprague Dawley rats [2]; po) | Lymph node, Cervical: histopathological lesions (Sprague Dawley rats [2]; po) | Lymph node, Mesenteric: histopathological lesions (Sprague Dawley rats [2]; po) | Lymph node: histopathological lesions (Sprague Dawley rats [2]; po) | Mammary gland: histopathological lesions (Sprague Dawley rats [2]; po) | Optic nerve: histopathological lesions (Sprague Dawley rats [2]; po) | Oviduct: histopathological lesions (Sprague Dawley rats [2]; po) | Pancreas: histopathological lesions (Sprague Dawley rats [2]; po) | Parathyroid gland: histopathological lesions (Sprague Dawley rats [2]; po) | Pituitary: histopathological lesions (Sprague Dawley rats [2]; po) | Prostate gland: Infiltration, mononuclear cell, focal, minimal to slight; incidence (Sprague Dawley rats [2]; po) | Salivary gland, Mandibular lobe: histopathological lesions (Sprague Dawley rats [2]; po) | Salivary gland: histopathological lesions (Sprague Dawley rats [2]; po) | Sciatic nerve: histopathological lesions (Sprague Dawley rats [2]; po) | Seminal vesicle: histopathological lesions (Sprague Dawley rats [2]; po) | Skeletal muscle: histopathological lesions (Sprague Dawley rats [2]; po) | Skin: histopathological lesions (Sprague Dawley rats [2]; po) | Spinal cord: histopathological lesions (Sprague Dawley rats [2]; po) | Spleen: histopathological lesions (Sprague Dawley rats [2]; po) | Stomach: histopathological lesions (Sprague Dawley rats [2]; po) | Testis: histopathological lesions (Sprague Dawley rats [2]; po) | Thymus: histopathological lesions (Sprague Dawley rats [2]; po) | Thyroid gland: histopathological lesions (Sprague Dawley rats [2]; po) | Tongue: histopathological lesions (Sprague Dawley rats [2]; po) | Trachea: histopathological lesions (Sprague Dawley rats [2]; po) | Urinary bladder: histopathological lesions (Sprague Dawley rats [2]; po) | Uterus: histopathological lesions (Sprague Dawley rats [2]; po) | Vagina: histopathological lesions (Sprague Dawley rats [2]; po)
5/5: Bone, femur: Hypertrophy, epiphysis, diffuse, slight to moderate/severe; incidence (Sprague Dawley rats [2]; [12]) | Bone, femur: Hypertrophy, epiphysis, diffuse, slight to moderate/severe; incidence (Sprague Dawley rats [2]; [13]) | Spleen: Atrophy, red pulp, diffuse, slight to moderate; incidence (Sprague Dawley rats [2]; [13])
above 25 mg/kg: dose above which abnormality was found (clinical observation, hematology, biochemistry, histopathology) (Wistar rats)
1/5: Adrenal gland: Congestion, cortex, focal, slight; incidence (Sprague Dawley rats [2]; [12]) | Kidney: Cast, tubule, focal, slight; incidence (Sprague Dawley rats [2]; [12]) | Kidney: Infarct, tubule, focal, slight; incidence (Sprague Dawley rats [2]; [12]) | Adrenal gland: Congestion, cortex, multifocal, slight; incidence (Sprague Dawley rats [2]; [13]) | Epididymis: Granuloma, spermatic, focal, moderate; incidence (Sprague Dawley rats [2]; [13]) | Heart: Infiltration, mononuclear cell, focal, minimal to slight; incidence (Sprague Dawley rats [2]; [13])
0.1 ± 0.1%: BASO (Sprague Dawley rats [4])
2.0 ± 0.1 g: Brain (Sprague Dawley rats [1])

[N-]=[N+]=[N-].[Na+] [sodium azide, reference compound]
about 122 times: reverse mutants, times more than the negative control group ([5]; TA1535, without S9, 5 μg/plate)
1313.0 ± 42.0 Colony/Plate: Number of Revertant ([5]; TA1535, without S9, positive reagent alone 5 μg/plate)
2223.0 ± 53.2 Colony/Plate: Number of Revertant ([6]; TA100, without S9, positive reagent 5 μg/plate)

O=P1(N(CCCl)CCCl)NCCCO1 (stereo not drawn) [Cyclophosphamide, cyclophosphamide, reference compound]
15.3 ± 2.3%: Frequency of Chromosomal Aberration (%) (CHO-K1 cells)
3.6 ± 2.1 ‰: RETs/1000RBCs (‰) (ICR male mice; 48 h) | frequencies of micronuclei (ICR male mice; 48 h)
46/300: Total Aberrations (CHO-K1 cells)
3.9 ± 2.1 ‰: RETs/1000RBCs (‰) (ICR male mice; 72 h) | frequencies of micronuclei (ICR male mice; 72 h)
22.9 ± 12.2 ‰: Mn-RETs/1000RETs (‰) (ICR male mice; 48 h)
6.8 ± 3.7 ‰: Mn-RETs/1000RETs (‰) (ICR male mice; 72 h)

Nc1ccc2cc3ccccc3cc2c1 [2-AA, 2-aminoanthracene, reference compound]
269.0 ± 21.9 Colony/Plate: Number of Revertant [7]
6055.0 ± 661.0 Colony/Plate: Number of Revertant ([9]; TA98, with S9, positive reagent alone 25 μg/plate)
535.0 ± 138.6 Colony/Plate: Number of Revertant [10]
270.3 ± 7.5 Colony/Plate: Number of Revertant ([5]; TA1535, with S9, positive reagent alone 25 μg/plate)
1532.0 ± 204.2 Colony/Plate: Number of Revertant [8]
2099.7 ± 145.5 Colony/Plate: Number of Revertant ([6]; TA100, with S9, positive reagent 5 μg/plate)
about 23 times: reverse mutants, times more than the negative control group ([5]; TA1535, with S9, 25 μg/plate)
about 275 times: reverse mutants, times more than the negative control group ([9]; TA98, with S9, 25 μg/plate)
1881.3 ± 434.2 Colony/Plate: Number of Revertant [11]
